Laboratory results from PMC5540273, “Progress towards a public chemogenomic set for protein kinases and a call for contributions” (PLoS ONE, 2017).

Assays:
Assay in all cases: KINOMEscan competition binding
AKT1 = AKT1 (Homo sapiens, UniProt P31749); details: read-out: %Inh AKT1
BRAF = BRAF (Homo sapiens, UniProt P15056); details: read-out: %Inh BRAF
CAMK2B = CAMK2B (Homo sapiens, UniProt Q13554); details: read-out: %Inh CAMK2B
CSNK2A1 = CSNK2A1 (Homo sapiens, UniProt P68400); details: read-out: %Inh CSNK2A1
DAPK3 = DAPK3 (Homo sapiens, UniProt O43293); details: read-out: %Inh DAPK3
DMPK = target: T1, DMPK (Homo sapiens, UniProt Q09013); details: read-out: %Inh DMPK
T1 sequence (Q09013 1-629): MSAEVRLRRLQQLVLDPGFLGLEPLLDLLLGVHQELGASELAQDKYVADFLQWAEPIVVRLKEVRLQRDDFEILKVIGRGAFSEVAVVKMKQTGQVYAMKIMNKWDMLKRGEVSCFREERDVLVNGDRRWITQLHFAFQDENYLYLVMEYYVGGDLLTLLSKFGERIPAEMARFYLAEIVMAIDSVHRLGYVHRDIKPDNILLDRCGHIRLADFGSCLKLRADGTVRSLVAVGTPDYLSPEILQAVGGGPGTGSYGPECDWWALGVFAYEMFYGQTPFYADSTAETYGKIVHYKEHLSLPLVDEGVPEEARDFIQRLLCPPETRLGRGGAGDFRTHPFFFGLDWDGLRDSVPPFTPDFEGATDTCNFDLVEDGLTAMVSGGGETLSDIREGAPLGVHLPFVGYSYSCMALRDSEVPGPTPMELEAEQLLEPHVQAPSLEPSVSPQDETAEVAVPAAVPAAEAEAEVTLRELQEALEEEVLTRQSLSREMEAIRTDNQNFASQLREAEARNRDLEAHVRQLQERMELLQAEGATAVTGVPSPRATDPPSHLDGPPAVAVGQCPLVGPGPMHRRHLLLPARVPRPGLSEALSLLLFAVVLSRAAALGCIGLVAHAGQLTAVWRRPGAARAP

FLT1 = FLT1 (Homo sapiens, UniProt P17948); details: read-out: %Inh FLT1
HASPIN = target: T2, HASPIN (Homo sapiens, UniProt Q8TF76); details: read-out: %Inh HASPIN
T2 sequence (Q8TF76 1-798): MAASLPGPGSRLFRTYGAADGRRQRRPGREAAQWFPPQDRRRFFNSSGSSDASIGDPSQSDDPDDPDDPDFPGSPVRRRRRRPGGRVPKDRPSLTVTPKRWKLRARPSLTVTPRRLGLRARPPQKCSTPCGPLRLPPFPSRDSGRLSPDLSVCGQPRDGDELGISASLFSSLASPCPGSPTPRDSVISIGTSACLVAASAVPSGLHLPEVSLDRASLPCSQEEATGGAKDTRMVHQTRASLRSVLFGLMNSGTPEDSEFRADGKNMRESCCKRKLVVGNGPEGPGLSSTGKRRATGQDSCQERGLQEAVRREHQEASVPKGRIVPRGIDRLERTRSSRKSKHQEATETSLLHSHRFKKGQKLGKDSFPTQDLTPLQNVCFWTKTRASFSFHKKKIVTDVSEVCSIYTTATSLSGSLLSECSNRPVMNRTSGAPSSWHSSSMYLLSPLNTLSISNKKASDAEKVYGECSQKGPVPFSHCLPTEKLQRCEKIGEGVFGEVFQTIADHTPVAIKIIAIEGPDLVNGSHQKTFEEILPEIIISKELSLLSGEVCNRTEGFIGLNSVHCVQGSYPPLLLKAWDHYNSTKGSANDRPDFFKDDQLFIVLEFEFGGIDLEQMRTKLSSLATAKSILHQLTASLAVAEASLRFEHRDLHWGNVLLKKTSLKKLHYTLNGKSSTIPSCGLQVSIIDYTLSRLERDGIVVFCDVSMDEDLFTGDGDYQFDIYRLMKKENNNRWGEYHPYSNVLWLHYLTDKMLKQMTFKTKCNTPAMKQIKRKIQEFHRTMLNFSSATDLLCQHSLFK

IGF1R = IGF1R (Homo sapiens, UniProt P08069); details: read-out: %Inh IGF1R
[1] = target: JAK1(JH1domain-catalytic) (Homo sapiens, UniProt P23458); details: read-out: %Inh JAK1(JH1domain-catalytic)
KIT = KIT (Homo sapiens, UniProt P10721); details: read-out: %Inh KIT
LIMK2 = LIMK2 (Homo sapiens, UniProt P53671); details: read-out: %Inh LIMK2
LKB1 = target: T3, LKB1 (Homo sapiens, UniProt Q15831); details: read-out: %Inh LKB1
T3 sequence (Q15831 1-433): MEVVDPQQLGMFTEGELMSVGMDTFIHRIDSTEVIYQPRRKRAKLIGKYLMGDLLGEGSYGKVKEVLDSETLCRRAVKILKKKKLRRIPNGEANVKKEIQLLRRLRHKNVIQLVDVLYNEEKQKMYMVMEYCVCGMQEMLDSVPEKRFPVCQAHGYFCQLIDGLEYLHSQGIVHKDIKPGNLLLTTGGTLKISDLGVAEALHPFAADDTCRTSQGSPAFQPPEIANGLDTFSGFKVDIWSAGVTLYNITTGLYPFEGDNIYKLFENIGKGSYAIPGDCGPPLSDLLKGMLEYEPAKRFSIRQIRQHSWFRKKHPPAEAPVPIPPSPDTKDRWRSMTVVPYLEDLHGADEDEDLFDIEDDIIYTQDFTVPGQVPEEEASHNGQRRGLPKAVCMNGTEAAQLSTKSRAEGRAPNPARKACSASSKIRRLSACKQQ

Chain of LIMK2 (P53671 whole entry): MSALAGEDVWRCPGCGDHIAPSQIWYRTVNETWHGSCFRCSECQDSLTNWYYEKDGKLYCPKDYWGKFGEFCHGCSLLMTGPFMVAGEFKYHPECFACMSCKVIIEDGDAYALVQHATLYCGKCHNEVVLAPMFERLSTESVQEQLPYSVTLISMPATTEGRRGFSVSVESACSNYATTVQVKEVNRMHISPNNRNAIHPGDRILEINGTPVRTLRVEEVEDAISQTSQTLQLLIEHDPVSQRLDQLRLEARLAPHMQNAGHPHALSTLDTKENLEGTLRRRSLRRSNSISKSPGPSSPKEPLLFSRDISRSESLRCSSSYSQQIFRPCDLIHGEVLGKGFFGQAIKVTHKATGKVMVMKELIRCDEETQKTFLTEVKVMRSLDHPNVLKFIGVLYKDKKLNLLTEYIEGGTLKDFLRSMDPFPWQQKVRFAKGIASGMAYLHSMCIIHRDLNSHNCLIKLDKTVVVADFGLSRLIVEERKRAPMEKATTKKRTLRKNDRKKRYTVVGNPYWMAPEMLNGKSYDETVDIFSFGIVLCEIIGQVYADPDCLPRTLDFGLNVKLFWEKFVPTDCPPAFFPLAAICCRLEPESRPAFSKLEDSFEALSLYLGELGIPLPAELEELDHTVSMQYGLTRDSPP
Chain of CAMK2B (Q13554 whole entry): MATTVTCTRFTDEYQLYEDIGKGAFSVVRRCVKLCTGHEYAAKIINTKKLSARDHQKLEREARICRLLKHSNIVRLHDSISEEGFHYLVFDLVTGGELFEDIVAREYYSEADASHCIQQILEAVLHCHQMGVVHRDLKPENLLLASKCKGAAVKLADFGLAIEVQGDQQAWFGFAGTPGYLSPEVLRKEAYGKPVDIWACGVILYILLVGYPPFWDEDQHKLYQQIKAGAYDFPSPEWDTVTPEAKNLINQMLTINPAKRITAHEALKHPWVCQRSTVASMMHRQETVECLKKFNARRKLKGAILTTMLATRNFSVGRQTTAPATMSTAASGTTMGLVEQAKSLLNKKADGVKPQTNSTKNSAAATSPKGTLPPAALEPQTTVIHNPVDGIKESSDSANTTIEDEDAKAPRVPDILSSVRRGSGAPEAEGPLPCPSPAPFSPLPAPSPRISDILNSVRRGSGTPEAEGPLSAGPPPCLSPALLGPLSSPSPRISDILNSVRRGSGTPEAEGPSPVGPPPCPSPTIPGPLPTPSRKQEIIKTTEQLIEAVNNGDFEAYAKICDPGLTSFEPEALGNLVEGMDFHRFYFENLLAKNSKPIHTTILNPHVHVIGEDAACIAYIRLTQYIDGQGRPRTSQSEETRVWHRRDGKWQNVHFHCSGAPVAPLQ
Chain of IGF1R (P08069 31-1367): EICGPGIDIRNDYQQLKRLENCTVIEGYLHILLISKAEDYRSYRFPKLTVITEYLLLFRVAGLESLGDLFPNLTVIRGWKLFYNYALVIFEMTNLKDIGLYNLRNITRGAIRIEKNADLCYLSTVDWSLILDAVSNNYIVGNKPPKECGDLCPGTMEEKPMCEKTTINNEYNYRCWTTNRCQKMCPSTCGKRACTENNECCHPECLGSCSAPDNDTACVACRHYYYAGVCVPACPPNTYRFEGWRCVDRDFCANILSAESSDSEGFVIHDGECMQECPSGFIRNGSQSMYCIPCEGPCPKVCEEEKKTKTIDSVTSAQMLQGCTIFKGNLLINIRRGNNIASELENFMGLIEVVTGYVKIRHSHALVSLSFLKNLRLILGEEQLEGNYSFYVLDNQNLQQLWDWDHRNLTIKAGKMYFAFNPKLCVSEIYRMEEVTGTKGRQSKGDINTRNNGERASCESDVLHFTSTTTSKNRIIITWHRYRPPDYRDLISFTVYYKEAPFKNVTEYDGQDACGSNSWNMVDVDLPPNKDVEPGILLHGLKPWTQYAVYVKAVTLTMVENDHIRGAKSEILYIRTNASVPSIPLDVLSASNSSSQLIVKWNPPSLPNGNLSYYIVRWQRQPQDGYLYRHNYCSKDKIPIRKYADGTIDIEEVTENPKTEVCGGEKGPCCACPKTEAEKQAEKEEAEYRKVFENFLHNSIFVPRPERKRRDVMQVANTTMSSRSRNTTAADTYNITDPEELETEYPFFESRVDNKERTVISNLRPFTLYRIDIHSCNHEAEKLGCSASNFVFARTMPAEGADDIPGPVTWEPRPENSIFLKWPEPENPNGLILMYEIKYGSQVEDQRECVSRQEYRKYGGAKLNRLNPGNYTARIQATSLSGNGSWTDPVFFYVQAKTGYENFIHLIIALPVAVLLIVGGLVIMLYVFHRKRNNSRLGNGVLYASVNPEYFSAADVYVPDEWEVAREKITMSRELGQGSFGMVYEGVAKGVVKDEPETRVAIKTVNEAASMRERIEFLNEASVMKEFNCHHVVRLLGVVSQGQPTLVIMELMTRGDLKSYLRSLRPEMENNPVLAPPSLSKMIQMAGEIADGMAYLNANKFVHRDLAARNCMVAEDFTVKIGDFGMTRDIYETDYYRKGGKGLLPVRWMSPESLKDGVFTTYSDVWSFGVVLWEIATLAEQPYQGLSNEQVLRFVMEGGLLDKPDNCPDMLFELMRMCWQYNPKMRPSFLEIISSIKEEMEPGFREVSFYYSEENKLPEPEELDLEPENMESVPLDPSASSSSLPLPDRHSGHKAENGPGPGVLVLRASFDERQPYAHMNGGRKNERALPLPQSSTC
Chain of CSNK2A1 (P68400 whole entry): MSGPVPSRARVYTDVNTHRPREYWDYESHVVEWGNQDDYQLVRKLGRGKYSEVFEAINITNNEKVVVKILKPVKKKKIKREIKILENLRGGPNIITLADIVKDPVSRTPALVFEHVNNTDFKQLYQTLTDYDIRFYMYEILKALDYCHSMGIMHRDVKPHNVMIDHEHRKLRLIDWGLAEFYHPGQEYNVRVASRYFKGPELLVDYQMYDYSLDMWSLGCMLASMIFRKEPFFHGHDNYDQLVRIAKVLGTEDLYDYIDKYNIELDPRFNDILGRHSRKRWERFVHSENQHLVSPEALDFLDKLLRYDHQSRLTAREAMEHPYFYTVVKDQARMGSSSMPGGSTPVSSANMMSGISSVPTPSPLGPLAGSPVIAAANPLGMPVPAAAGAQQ
Chain of JAK1(JH1domain-catalytic) (P23458 854-1154 limits assumed): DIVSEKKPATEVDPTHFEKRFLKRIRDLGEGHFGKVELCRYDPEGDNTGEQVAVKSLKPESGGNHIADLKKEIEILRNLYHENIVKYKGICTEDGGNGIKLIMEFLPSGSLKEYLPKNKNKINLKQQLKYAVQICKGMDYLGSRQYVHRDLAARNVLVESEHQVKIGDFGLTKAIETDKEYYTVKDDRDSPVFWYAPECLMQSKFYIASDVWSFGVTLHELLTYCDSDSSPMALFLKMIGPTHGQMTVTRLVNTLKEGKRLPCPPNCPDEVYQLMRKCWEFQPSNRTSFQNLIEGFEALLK
Chain of FLT1 (P17948 27-1338): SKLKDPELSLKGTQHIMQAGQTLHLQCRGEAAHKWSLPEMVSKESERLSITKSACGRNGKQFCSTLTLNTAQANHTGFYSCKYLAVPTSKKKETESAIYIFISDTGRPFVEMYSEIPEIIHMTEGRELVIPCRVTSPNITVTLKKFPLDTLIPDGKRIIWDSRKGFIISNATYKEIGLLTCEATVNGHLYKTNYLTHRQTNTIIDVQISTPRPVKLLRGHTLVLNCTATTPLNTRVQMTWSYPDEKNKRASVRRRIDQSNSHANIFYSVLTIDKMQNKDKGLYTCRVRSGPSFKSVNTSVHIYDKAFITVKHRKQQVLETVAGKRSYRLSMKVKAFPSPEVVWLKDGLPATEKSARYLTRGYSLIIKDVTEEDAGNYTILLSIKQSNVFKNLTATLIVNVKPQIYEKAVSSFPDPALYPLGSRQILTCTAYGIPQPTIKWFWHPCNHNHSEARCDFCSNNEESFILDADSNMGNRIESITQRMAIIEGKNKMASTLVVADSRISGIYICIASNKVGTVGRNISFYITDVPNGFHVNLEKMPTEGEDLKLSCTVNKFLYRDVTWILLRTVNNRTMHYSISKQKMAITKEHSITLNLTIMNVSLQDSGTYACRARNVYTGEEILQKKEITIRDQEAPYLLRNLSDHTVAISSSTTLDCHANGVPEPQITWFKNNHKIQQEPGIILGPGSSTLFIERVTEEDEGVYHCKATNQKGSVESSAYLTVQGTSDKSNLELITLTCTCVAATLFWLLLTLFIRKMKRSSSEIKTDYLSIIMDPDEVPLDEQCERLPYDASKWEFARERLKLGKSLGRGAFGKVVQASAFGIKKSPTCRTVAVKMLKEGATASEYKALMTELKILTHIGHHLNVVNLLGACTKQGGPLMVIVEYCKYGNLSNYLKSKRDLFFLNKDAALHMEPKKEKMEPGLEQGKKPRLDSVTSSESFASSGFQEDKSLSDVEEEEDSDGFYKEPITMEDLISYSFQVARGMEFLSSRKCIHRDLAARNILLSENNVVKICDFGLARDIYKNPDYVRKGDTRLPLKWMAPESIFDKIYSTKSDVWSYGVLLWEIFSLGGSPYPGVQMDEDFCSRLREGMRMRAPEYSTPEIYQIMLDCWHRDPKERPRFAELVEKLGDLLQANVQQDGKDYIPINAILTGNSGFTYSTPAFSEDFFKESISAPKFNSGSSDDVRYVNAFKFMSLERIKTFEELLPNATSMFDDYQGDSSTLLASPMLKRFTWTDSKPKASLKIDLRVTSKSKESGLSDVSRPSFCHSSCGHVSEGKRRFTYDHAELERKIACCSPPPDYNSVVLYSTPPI

Cn1cc(-c2cnc(N)c3c(-c4ccc5c(c4)CCN5C(=O)Cc4ccccc4)csc23)cn1 [UNC10225012A]
inhibition at 1 µM (AKT1): 14% | inhibition at 1 µM (BRAF): 0% | inhibition at 1 µM (CAMK2B): 12% | inhibition at 1 µM (CSNK2A1): 0% | inhibition at 1 µM (DAPK3): 7% | inhibition at 1 µM (DMPK): 0% | inhibition at 1 µM (FLT1): 79% | inhibition at 1 µM (HASPIN): 0% | inhibition at 1 µM (IGF1R): 0% | inhibition at 1 µM [1]: 0% | inhibition at 1 µM (KIT): 100% | inhibition at 1 µM (LIMK2): 55% | inhibition at 1 µM (LKB1): 0%

O=c1cc(N2CCOCC2)nc2n(Cc3cccc(Cl)c3Cl)c(C3CC3)nn12 [UNC10225469A]
inhibition at 1 µM (AKT1): 12% | inhibition at 1 µM (BRAF): 0% | inhibition at 1 µM (CAMK2B): 10% | inhibition at 1 µM (CSNK2A1): 16% | inhibition at 1 µM (DAPK3): 6% | inhibition at 1 µM (DMPK): 0% | inhibition at 1 µM (FLT1): 6% | inhibition at 1 µM (HASPIN): 0% | inhibition at 1 µM (IGF1R): 0% | inhibition at 1 µM [1]: 9% | inhibition at 1 µM (KIT): 0% | inhibition at 1 µM (LIMK2): 8% | inhibition at 1 µM (LKB1): 15%

COc1cccc(OC)c1C(=O)Nc1cccc(-c2nn3ccccc3c2-c2ccnc(Nc3cccc(F)c3)n2)c1 [UNC10225310A]
inhibition at 1 µM (AKT1): 4% | inhibition at 1 µM (BRAF): 17% | inhibition at 1 µM (CAMK2B): 6% | inhibition at 1 µM (CSNK2A1): 0% | inhibition at 1 µM (DAPK3): 0% | inhibition at 1 µM (DMPK): 2% | inhibition at 1 µM (FLT1): 32% | inhibition at 1 µM (HASPIN): 0% | inhibition at 1 µM (IGF1R): 7% | inhibition at 1 µM [1]: 0% | inhibition at 1 µM (KIT): 90.9% | inhibition at 1 µM (LIMK2): 15% | inhibition at 1 µM (LKB1): 6%

CS(=O)(=O)Cc1ccc(Nc2nccc(-c3c(-c4cccc(NC(=O)C5CCCCC5)c4)nn4ncccc34)n2)cc1 [UNC10225159A]
inhibition at 1 µM (AKT1): 23% | inhibition at 1 µM (BRAF): 20% | inhibition at 1 µM (CAMK2B): 8% | inhibition at 1 µM (CSNK2A1): 17% | inhibition at 1 µM (DAPK3): 0% | inhibition at 1 µM (DMPK): 0% | inhibition at 1 µM (FLT1): 63% | inhibition at 1 µM (HASPIN): 17% | inhibition at 1 µM (IGF1R): 68% | inhibition at 1 µM [1]: 0% | inhibition at 1 µM (KIT): 88% | inhibition at 1 µM (LIMK2): 14% | inhibition at 1 µM (LKB1): 0%

Cc1ccc(NC(=O)Nc2cccc(C(F)(F)F)c2)cc1 [UNC10225187A]
inhibition at 1 µM (AKT1): 12% | inhibition at 1 µM (BRAF): 0% | inhibition at 1 µM (CAMK2B): 25% | inhibition at 1 µM (CSNK2A1): 1% | inhibition at 1 µM (DAPK3): 24% | inhibition at 1 µM (DMPK): 0% | inhibition at 1 µM (FLT1): 23% | inhibition at 1 µM (HASPIN): 12% | inhibition at 1 µM (IGF1R): 0% | inhibition at 1 µM [1]: 0% | inhibition at 1 µM (KIT): 91.4% | inhibition at 1 µM (LIMK2): 10% | inhibition at 1 µM (LKB1): 16%
